Measured values as given in patent publication US7109333B2, “Heterocyclic compounds” (SmithKline Beecham Corporation, priority 1998, dated 2006).

Tests used:
c-erbB-2 = target: T1, c-erbB-2 (Homo sapiens, UniProt P04626); assay: Substrate phosphorylation assay, erbB2, assay (b) (SPA, 33P-ATP); format: biochemical; conditions: Tables 1A and 1B
T1 construct: baculovirus expressed, recombinant constructs of the intracellular domains of c-erbB-2 and c-erbB-4; made in house
Excerpt: The substrate phosphorylation assays use baculovirus expressed, recombinant constructs of the intracellular domains of c-erbB-2 and c-erbB-4 that are constitutively active and EGFr isolated from solubilised A431 cell membranes. The method measures the ability of the isolated enzymes to catalyse the transfer of the g-phosphate from ATP onto tyrosine residues in a biotinylated synthetic peptide (Biotin-[…]. Substrate phosphorylation was detected following either of the following two procedures: a.) c-ErbB-2, c-ErbB4 or EGFr were incubated for 30 minutes, at room temperature, with 10 mM MnCl2, 10 mM ATP, 5 mM peptide, and test compound (diluted from a 5 mM stock in DMSO, final DMSO concentration is 2%) in 40 mM HEPES buffer, pH 7.4. The reaction was stopped by the addition of EDTA (final concentration 0.15 mM) and a sample was transferred to a streptavidin-coated 96-well plate. The plate was washed and the level of phosphotyrosine on the peptide was determined using a Europium-labelled antiphosphotyrosine antibody and quantified with a time-resolved fluorescence technique. b.) ErbB2 was incubated for 50 minutes at room temperature with 15 mM MnCl2, 2 mM ATP, 0.25 mCi [γ-^33P] ATP/well, 5 mM peptide substrate, and test compound (diluted from a 10 mM stock in DMSO, final DMSO concentration is 2%) in 50 mM MOPS pH 7.2. The reaction was terminated by the addition of […] of PBS containing 2.5 mg/ml streptavidin-coated SPA beads (Amersham Inc.), 50 mM ATP, 10 mM EDTA and 0.1% TX-100. The microtitre plates were sealed and SPA beads were allowed to settle for at least six hours. The SPA signal was measured using a Packard Topcount 96-well plate scintillation counter (Packard Instrument Co., Meriden, Conn.).

[1] = system: BT474 breast tumor cell line; assay: Methylene blue growth inhibition assay, BT474; format: cell-based; conditions: Homo sapiens, BT-474, 72 h; BT474, 3 days; read-out: Cell Proliferation BT474, IC50
Protocol: (§1) Human breast (BT474), head and neck (HN5) and gastric tumor (N87) cell lines were cultured in low glucose DMEM (Life Technologies 12320–032) containing 10% fetal bovine serum (FBS) at 37° C. in a humidified 10% CO2, 90% air incubator. The SV40 transformed human mammary epithelial cell line HB4a was transfected with either human H-ras cDNA (HB4a r4.2) or the human c-erbB2 cDNA (HB4a c5.2). The HB4a clones were cultured in RPMI containing 10% FBS, insulin (5 μg/ml), hydrocortisone (5 μg/ml), supplemented with the selection agent hygromycin B (50 μg/ml). Cells were harvested using trypsin/EDTA, counted using a haemocytometer, and plated in […] of the appropriate media, at the following densities, in a 96-well tissue culture plate (Falcon 3075): BT474 10,000 cells/well, HN5 3,000 cells/well, N87 10,000 cells/well, HB4a c5.2 3,000 cells/well, HB4a r4.2 3,000 cells/well. The next day, compounds were diluted in DMEM containing […] gentamicin, at twice the final required concentration, from 10 mM stock solutions in DMSO. […] of these dilutions were added to the […] of media currently on the cell plates. Medium containing 0.6% DMSO was added to control wells. Compounds diluted in DMEM were added to all cell lines, including the HB4a r4.2 and HB4a c5.2 cell lines. The final concentration of DMSO in all wells was 0.3%. Cells were incubated at 37° C., 10% CO2 for 3 days. Medium was removed by aspiration. Cell biomass was estimated by staining cells with 100 μl per well methylene blue (Sigma M9140, 0.5% in 50:50 ethanol:water), and incubation at room temperature for at least 30 minutes. Stain was removed, and the plates rinsed under a gentle stream of water, and air-dried. To release stain from the cells 100 μl of solubilization solution was added (1% N-lauroyl sarcosine, Sodium salt, Sigma L5125, in PBS), and plates were shaken gently for about 30 minutes. Optical density at 620 nm was measured on a microplate reader. Percent inhibition of cell growth was calculated relative to vehicle treated control wells. Concentration of compound that inhibits 50% of cell growth (IC50) was interpolated using nonlinear regression (Levenberg-Marquardt) and the equation, y=Vmax*(1−(x/(K+x)))+Y2, where “K” was equal to the IC50.

[2] = system: HN5 head and neck tumor cell line; assay: Methylene blue growth inhibition assay, HN5; format: cell-based; conditions: Homo sapiens, 72 h; HN5, 3 days; read-out: Cell Proliferation HN5, IC50
Protocol: as §1

[3] = system: HB4a c5.2 (HB4a transfected with human c-erbB2 cDNA); assay: Methylene blue growth inhibition assay, HB4a erbB2; format: cell-based; conditions: 72 h, HB4a c5.2, 3 days, read-out: Cell Proliferation HB4a erbB2, IC50
Protocol: as §1

[4] = system: N87 gastric tumor cell line; assay: Methylene blue growth inhibition assay, N87; format: cell-based; conditions: Homo sapiens, 72 h; N87, 3 days; read-out: Cell Proliferation N87, IC50
Protocol: as §1

[5] = system: HB4a r4.2 (HB4a transfected with human H-ras cDNA); assay: Methylene blue growth inhibition assay, HB4a ras; format: cell-based; conditions: 72 h, HB4a r4.2, 3 days, read-out: Cell Proliferation HB4a ras, IC50
Protocol: as §1

T1 sequence (P04626 676-1255 limits assumed): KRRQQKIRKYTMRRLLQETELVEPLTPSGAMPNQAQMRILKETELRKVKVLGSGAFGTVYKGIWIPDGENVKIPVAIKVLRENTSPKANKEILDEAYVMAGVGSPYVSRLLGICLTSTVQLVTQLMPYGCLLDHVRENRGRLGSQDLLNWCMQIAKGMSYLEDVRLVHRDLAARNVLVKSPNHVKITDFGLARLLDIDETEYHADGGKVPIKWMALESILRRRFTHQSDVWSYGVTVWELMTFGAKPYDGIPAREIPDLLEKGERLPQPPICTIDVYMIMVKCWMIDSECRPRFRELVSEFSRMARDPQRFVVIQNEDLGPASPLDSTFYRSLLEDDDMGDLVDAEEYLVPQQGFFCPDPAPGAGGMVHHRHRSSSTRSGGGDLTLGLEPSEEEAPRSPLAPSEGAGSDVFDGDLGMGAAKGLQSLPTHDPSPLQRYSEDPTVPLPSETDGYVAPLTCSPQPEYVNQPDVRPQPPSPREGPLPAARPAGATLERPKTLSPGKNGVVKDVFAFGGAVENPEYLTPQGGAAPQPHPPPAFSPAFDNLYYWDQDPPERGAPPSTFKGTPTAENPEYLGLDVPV

Row | IC50 (c-erbB-2) | IC50 [1] | IC50 [2] | IC50 [4] | SMILES | IC50 [3] | IC50 [5]
1 | < 0.1 µM | < 5 µM | < 5 µM | < 5 µM | CS(=O)(=O)CCNCc1ccc(-c2ccc3ncnc(Nc4ccc(OCc5ccccc5)c(Cl)c4)c3c2)o1 [Example 28] | < 5 µM | 25 to 50 µM
2 | < 0.1 µM | < 5 µM | < 5 µM | < 5 µM | CS(=O)(=O)CCNCc1ccc(-c2ccc3ncnc(Nc4ccc(OCc5cccc(F)c5)cc4)c3c2)o1 [Example 8, N-{4-[(3-fluorobenzyl)oxy]phenyl}-6-[5-({[2-(methanesulphonyl)ethyl]amino}methyl)-2-furyl]-4-quinazolinamine] | < 5 µM | 5 to 25 µM
3 | < 0.1 µM | < 5 µM | < 5 µM | < 5 µM | COc1cc2ncnc(Nc3ccc(S(=O)(=O)c4ccccc4)cc3)c2cc1-c1ccc(CNCCS(C)(=O)=O)o1 [Example 33, 6-[5-({[2-(Methanesulphonyl)ethyl]amino}methyl)-2-furyl]-7-methoxy-N-(4-benzenesulphonyl)phenyl-4-quinazolinamine] | < 5 µM | < 5 µM
4 | < 0.1 µM | < 5 µM | < 5 µM | < 5 µM | CS(=O)(=O)CCNCc1nc(-c2ccc3ncnc(Nc4ccc(OCc5ccccc5)c(F)c4)c3c2)cs1 [Example 15, N-[4-(benzyloxy)-3-fluorophenyl]-6-[2-({[2-(methanesulphonyl)ethyl]amino}methyl)-1,3-thiazol-4-yl]-4-quinazolinamine] | < 5 µM | > 50 µM
5 | < 0.1 µM | < 5 µM | < 5 µM | < 5 µM | CS(=O)(=O)CCNCc1ccc(-c2ccc3ncnc(Nc4ccc(OCc5cccc(Br)c5)cc4)c3c2)o1 [Example 19, N-{4-[(3-bromobenzyl)oxy]phenyl}-6-[5-({[2-(methanesulphonyl)ethyl]amino}methyl)-2-furyl]-4-quinazolinamine] | < 5 µM | > 50 µM
6 | < 0.1 µM | < 5 µM | < 5 µM | < 5 µM | CS(=O)(=O)CCNCc1nc(-c2ccc3ncnc(Nc4ccc5c(cnn5Cc5cccc(F)c5)c4)c3c2)cs1 [Example 21, N-[1-(3-fluorobenzyl)-1H-indazol-5-yl]-6-[2-({[2-(methanesulphonyl)ethyl]amino}methyl)-1,3-thiazol-4-yl]-4-quinazolinamine] | < 5 µM | 5 to 25 µM
7 | < 0.1 µM | < 5 µM | < 5 µM | < 5 µM | CS(=O)(=O)CCNCc1ccc(-c2ccc3ncnc(Nc4ccc(OCc5ccccc5)c(F)c4)c3c2)o1 [Example 27] | < 5 µM | 5 to 25 µM
8 | < 0.1 µM | < 5 µM | 5 to 25 µM | < 5 µM | CS(=O)(=O)CCNCc1ccoc1-c1ccc2ncnc(Nc3ccc(OCc4ccccc4)cc3)c2c1 [Example 20, N-[4-(benzyloxy)phenyl]-6-[3-({[2-(methanesulphonyl)ethyl]amino}methyl)-2-furyl]-4-quinazolinamine] | < 5 µM | > 50 µM
9 | < 0.1 µM | < 5 µM | < 5 µM | < 5 µM | CS(=O)(=O)CCNCc1nc(-c2ccc3ncnc(Nc4ccc(OCc5cccc(F)c5)cc4)c3c2)cs1 [Example 14, N-{4-[(3-fluorobenzyl)oxy]phenyl}-6-[2-({[2-(methanesulphonyl)ethyl]amino}methyl)-1,3-thiazol-4-yl]-4-quinazolinamine] | < 5 µM | > 50 µM
10 |  | < 5 µM | < 5 µM | < 5 µM | COc1cc(Nc2ncnc3ccc(-c4ccc(CNCCS(C)(=O)=O)o4)cc23)ccc1OCc1cccc(F)c1 [Example 9, N-{4-[(3-fluorobenzyl)oxy]-3-methoxyphenyl}-6-[5-({[2-(methanesulphonyl)ethyl]amino}methyl)-2-furyl]-4-quinazolinamine] | < 5 µM | 5 to 25 µM
11 | < 0.1 µM | < 5 µM | < 5 µM | < 5 µM | COc1cc2ncnc(Nc3ccc4c(cnn4Cc4ccccc4)c3)c2cc1-c1ccc(CNCCS(C)(=O)=O)o1 [Example 16, N-(1-benzyl-1H-indazol-5-yl)-7-methoxy-6-[5-({[2-(methanesulphonyl)ethyl]amino}methyl)-2-furyl]-4-quinazolinamine] | < 5 µM | 5 to 25 µM
12 | < 0.1 µM | < 5 µM | < 5 µM | < 5 µM | CS(=O)(=O)CCNCc1nc(-c2ccc3ncnc(Nc4ccc(OCc5cccc(F)c5)c(F)c4)c3c2)cs1 [Example 25, N-{3-fluoro-4-[(3-fluorobenzyl)oxy]phenyl}-6-[2-({[2-(methanesulphonyl)ethyl]amino}methyl)-1,3-thiazol-4-yl]-4-quinazolinamine] | < 5 µM | > 50 µM
13 | < 0.1 µM | < 5 µM | 5 to 25 µM | 5 to 25 µM | CS(=O)(=O)CCNCc1ccc(-c2ccc3ncnc(Nc4ccc(OCc5cccc(C(F)(F)F)c5)cc4)c3c2)o1 [Example 17, 6-[5-({[2-(methanesulphonyl)ethyl]amino}methyl)-2-furyl]-N-(4-{[3-(trifluoromethyl)benzyl]oxy}phenyl)-4-quinazolinamine] | 5 to 25 µM | 5 to 25 µM
14 | < 0.1 µM | < 5 µM | < 5 µM | < 5 µM | CS(=O)(=O)CCNCc1ccc(-c2ccc3ncnc(Nc4ccc(OCc5ccccc5)c(C(F)(F)F)c4)c3c2)o1 [Example 37] | < 5 µM | 25 to 50 µM
15 | < 0.1 µM | 5 to 25 µM | < 5 µM | 5 to 25 µM | CS(=O)(=O)CCNCc1nc(-c2ccc3ncnc(Nc4ccc(OCc5cccc(C(F)(F)F)c5)cc4)c3c2)cs1 [Example 24, 6-[2-({[2-(methanesulphonyl)ethyl]amino}methyl)-1,3-thiazol-4-yl]-N-(4-{[3-(trifluoromethyl)benzyl]oxy}phenyl)-4-quinazolinamine] | 5 to 25 µM | > 50 µM

Row | SMILES | IC50 (c-erbB-2) | IC50 [1] | IC50 [2] | IC50 [4] | IC50 [3] | IC50 [5]
16 | CS(=O)(=O)CCNCc1ccc(-c2ccc3ncnc(Nc4ccc(OCc5cccc(F)c5)c(Cl)c4)c3c2)o1 [Example 29, N-{3-Chloro-4-[(3-fluorobenzyl)oxy]phenyl}-6-[5-({[2-(methanesulphonyl)ethyl]amino}methyl)-2-furyl]-4-quinazolinamine] |  | < 5 µM | < 5 µM | < 5 µM | < 5 µM | > 50 µM
